Where two headings read alike, the source gives them in different places.
What was measured:
[1] = target: T1, α7-5HT3 (Homo sapiens, UniProt P36544, M226I/T225I); test: Agonist potency (EC50), HEK cells expressing chimeric channel; type: cell-based, human α7 nAChR LBD, murine 5HT3 IPD; settings: read-out: Mean EC50, α7-5HT3
T1 construct: expressed in transfected cells; host or cells: HEK cells

[2] = target: T2, α7^Q79A-5HT3 (Homo sapiens, UniProt P36544, M226I/Q79A/T225I); test: as above; type: cell-based, human α7 nAChR LBD, murine 5HT3 IPD; settings: read-out: Mean EC50, α7^Q79A-5HT3
T2 construct: expressed in transfected cells; host or cells: HEK cells
T2 sequence (P36544 with tags, fused parts or gaps Q79A/T225I/M226I): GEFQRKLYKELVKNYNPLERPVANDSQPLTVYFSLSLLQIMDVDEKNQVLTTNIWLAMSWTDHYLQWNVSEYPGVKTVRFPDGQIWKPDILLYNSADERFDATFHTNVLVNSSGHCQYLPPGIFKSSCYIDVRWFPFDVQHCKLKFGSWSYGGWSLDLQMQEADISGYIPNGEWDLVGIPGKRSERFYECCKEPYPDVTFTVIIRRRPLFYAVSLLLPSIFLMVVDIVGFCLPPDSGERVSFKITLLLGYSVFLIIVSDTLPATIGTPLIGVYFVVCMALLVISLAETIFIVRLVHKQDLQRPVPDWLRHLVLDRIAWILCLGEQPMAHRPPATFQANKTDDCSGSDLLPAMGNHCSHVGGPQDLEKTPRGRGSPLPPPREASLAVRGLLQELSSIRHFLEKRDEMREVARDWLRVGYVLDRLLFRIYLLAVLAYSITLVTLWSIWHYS

[3] = target: T3, α7^Q79S-5HT3 (Homo sapiens, UniProt P36544, M226I/Q79S/T225I); test: as above; type: cell-based, human α7 nAChR LBD, murine 5HT3 IPD; settings: read-out: Mean EC50, α7^Q79S-5HT3
T3 construct: expressed in transfected cells; host or cells: HEK cells
T3 sequence (P36544 with tags, fused parts or gaps Q79S/T225I/M226I): as the sequence (P36544 with tags, fused parts or gaps Q79A/T225I/M226I) above, with A57S counted along it

[4] = target: T4, α7^Q79G-GlyR (Homo sapiens, UniProt P36544, Q79G); test: as above; type: cell-based
T4 construct: expressed in transfected cells; host or cells: HEK cells
T4 sequence (P36544 with tags, fused parts or gaps Q79G): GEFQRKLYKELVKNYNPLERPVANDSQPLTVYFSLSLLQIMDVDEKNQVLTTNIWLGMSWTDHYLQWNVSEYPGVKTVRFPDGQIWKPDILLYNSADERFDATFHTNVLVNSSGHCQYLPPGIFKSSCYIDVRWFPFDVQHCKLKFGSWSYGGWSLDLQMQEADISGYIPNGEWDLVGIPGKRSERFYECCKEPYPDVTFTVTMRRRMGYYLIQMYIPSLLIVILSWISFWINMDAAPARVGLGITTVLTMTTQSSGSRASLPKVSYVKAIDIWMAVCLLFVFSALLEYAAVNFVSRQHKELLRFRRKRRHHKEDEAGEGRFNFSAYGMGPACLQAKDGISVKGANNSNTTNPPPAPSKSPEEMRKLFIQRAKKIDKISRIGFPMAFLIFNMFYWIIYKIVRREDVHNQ

[5] = target: T5, α7^Q79S-GlyR (Homo sapiens, UniProt P36544, Q79S); test: as above; type: cell-based
T5 construct: expressed in transfected cells; host or cells: HEK cells
T5 sequence (P36544 with tags, fused parts or gaps Q79S): as the sequence (P36544 with tags, fused parts or gaps Q79G) above, with G57S counted along it

[6] = target: T6, α7^G175K-GlyR (Homo sapiens, UniProt P36544, G175K); test: Agonist potency at chimeric channel; type: cell-based
T6 construct: expressed in transfected cells
T6 sequence (P36544 with tags, fused parts or gaps G175K): as the sequence (P36544 with tags, fused parts or gaps Q79G) above, with G57Q, G153K counted along it

[7] = target: T7, α7^Y115F,G175K-GlyR (Homo sapiens, UniProt P36544, G175K/Y115F); test: Agonist potency at chimeric channel; type: cell-based
T7 construct: expressed in transfected cells
T7 sequence (P36544 with tags, fused parts or gaps Y115F/G175K): as the sequence (P36544 with tags, fused parts or gaps Q79G) above, with G57Q, Y93F, G153K counted along it

[8] = target: T8, α7^G175K,Y210F-GlyR (Homo sapiens, UniProt P36544, G175K/Y210F); test: Agonist potency at chimeric channel; type: cell-based
T8 construct: expressed in transfected cells
T8 sequence (P36544 with tags, fused parts or gaps G175K/Y210F): as the sequence (P36544 with tags, fused parts or gaps Q79G) above, with G57Q, G153K, Y188F counted along it

[9] = target: T9, α7^Q79G,G175K-GlyR (Homo sapiens, UniProt P36544, G175K/Q79G); test: Agonist potency at chimeric channel; type: cell-based
T9 construct: expressed in transfected cells
T9 sequence (P36544 with tags, fused parts or gaps Q79G/G175K): as the sequence (P36544 with tags, fused parts or gaps Q79G) above, with G153K counted along it

[10] = target: T10, α7^W77F,Q79G,G175K-GlyR (Homo sapiens, UniProt P36544, G175K/Q79G/W77F); test: Agonist potency at chimeric channel; type: cell-based
T10 construct: expressed in transfected cells
T10 sequence (P36544 with tags, fused parts or gaps W77F/Q79G/G175K): as the sequence (P36544 with tags, fused parts or gaps Q79G) above, with W55F, G153K counted along it

[11] = target: T11, α7GlyR W77F Q79G Y115F G175K (Homo sapiens, UniProt P36544, G175K/Q79G/W77F/Y115F); test: Agonist potency at chimeric channel; type: cell-based
T11 construct: expressed in transfected cells
T11 sequence (P36544 with tags, fused parts or gaps W77F/Q79G/Y115F/G175K): as the sequence (P36544 with tags, fused parts or gaps Q79G) above, with W55F, Y93F, G153K counted along it

[12] = target: T12, α7^W77F,G175K,Y210F-GlyR (Homo sapiens, UniProt P36544, G175K/W77F/Y210F); test: Agonist potency at chimeric channel; type: cell-based
T12 construct: expressed in transfected cells
T12 sequence (P36544 with tags, fused parts or gaps W77F/G175K/Y210F): as the sequence (P36544 with tags, fused parts or gaps Q79G) above, with W55F, G57Q, G153K, Y188F counted along it

[13] = target: T13, α7^Q79G,Y115F,G175K-GlyR (Homo sapiens, UniProt P36544, G175K/Q79G/Y115F); test: Agonist potency at chimeric channel; type: cell-based
T13 construct: expressed in transfected cells
T13 sequence (P36544 with tags, fused parts or gaps Q79G/Y115F/G175K): as the sequence (P36544 with tags, fused parts or gaps Q79G) above, with Y93F, G153K counted along it

[14] = target: T14, α7GlyR Q79G Y115F G175K Y210F (Homo sapiens, UniProt P36544, G175K/Q79G/Y115F/Y210F); test: Agonist potency at chimeric channel; type: cell-based
T14 construct: expressed in transfected cells
T14 sequence (P36544 with tags, fused parts or gaps Q79G/Y115F/G175K/Y210F): as the sequence (P36544 with tags, fused parts or gaps Q79G) above, with Y93F, G153K, Y188F counted along it

[15] = target: T15, α7^L141F,Y115F,G175K-GlyR (Homo sapiens, UniProt P36544, G175K/L141F/Y115F); test: Agonist potency at chimeric channel; type: cell-based
T15 construct: expressed in transfected cells
T15 sequence (P36544 with tags, fused parts or gaps Y115F/L141F/G175K): as the sequence (P36544 with tags, fused parts or gaps Q79G) above, with G57Q, Y93F, L119F, G153K counted along it

[16] = target: T16, α7^Q79G,Q139L,G175K-GlyR (Homo sapiens, UniProt P36544, G175K/Q139L/Q79G); test: Agonist potency at chimeric channel; type: cell-based
T16 construct: expressed in transfected cells
T16 sequence (P36544 with tags, fused parts or gaps Q79G/Q139L/G175K): as the sequence (P36544 with tags, fused parts or gaps Q79G) above, with Q117L, G153K counted along it

[17] = target: T17, α7^L131A-GlyR (Homo sapiens, UniProt P36544, L131A); test: Agonist potency at chimeric channel (Table 9); type: cell-based
T17 construct: expressed in transfected cells
T17 sequence (P36544 with tags, fused parts or gaps L131A): as the sequence (P36544 with tags, fused parts or gaps Q79G) above, with G57Q, L109A counted along it

[18] = target: T18, α7^L131G-GlyR (Homo sapiens, UniProt P36544, L131G); test: Agonist potency at chimeric channel (Table 9); type: cell-based
T18 construct: expressed in transfected cells
T18 sequence (P36544 with tags, fused parts or gaps L131G): as the sequence (P36544 with tags, fused parts or gaps Q79G) above, with G57Q, L109G counted along it

[19] = target: T19, α7^L131G-5HT3 HC (Homo sapiens, UniProt P36544, L131G, form not given); test: Agonist potency at chimeric channel (Table 9); type: cell-based; settings: read-out: Agonist potency
T19 construct: rows headed: Agonist potency; other: α75HT3 L131G HC; α75HT3 L131G HC; fused on or other part: 5-HT3A receptor ion pore domain at the C-terminus
T19 sequence (P36544 23-224 L131G limits assumed, form open): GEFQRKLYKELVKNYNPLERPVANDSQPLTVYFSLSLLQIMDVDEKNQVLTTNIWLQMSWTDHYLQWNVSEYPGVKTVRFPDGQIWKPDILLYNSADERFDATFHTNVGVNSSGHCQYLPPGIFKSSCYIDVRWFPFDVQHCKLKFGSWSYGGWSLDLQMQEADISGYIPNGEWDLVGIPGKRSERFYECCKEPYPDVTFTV

[20] = target: T20, α7^L131G,Q139L-GlyR (Homo sapiens, UniProt P36544, L131G/Q139L); test: Agonist potency at chimeric channel (Table 9); type: cell-based
T20 construct: expressed in transfected cells
T20 sequence (P36544 with tags, fused parts or gaps L131G/Q139L): as the sequence (P36544 with tags, fused parts or gaps Q79G) above, with G57Q, L109G, Q117L counted along it

[21] = target: T21, α7^L131G,Y217F-GlyR (Homo sapiens, UniProt P36544, L131G/Y217F); test: Agonist potency at chimeric channel (Table 9); type: cell-based
T21 construct: expressed in transfected cells
T21 sequence (P36544 with tags, fused parts or gaps L131G/Y217F): as the sequence (P36544 with tags, fused parts or gaps Q79G) above, with G57Q, L109G, Y195F counted along it

[22] = target: T22, α7^Q79S,L131G-GlyR (Homo sapiens, UniProt P36544, L131G/Q79S); test: Agonist potency at chimeric channel (Table 9); type: cell-based
T22 construct: expressed in transfected cells
T22 sequence (P36544 with tags, fused parts or gaps Q79S/L131G): as the sequence (P36544 with tags, fused parts or gaps Q79G) above, with G57S, L109G counted along it

[23] = target: T23, α7^L131M-GlyR (Homo sapiens, UniProt P36544, L131M); test: Agonist potency at chimeric channel (Table 9); type: cell-based
T23 construct: expressed in transfected cells
T23 sequence (P36544 with tags, fused parts or gaps L131M): as the sequence (P36544 with tags, fused parts or gaps Q79G) above, with G57Q, L109M counted along it

[24] = target: T24, α7^L131Q-GlyR (Homo sapiens, UniProt P36544, L131Q); test: Agonist potency at chimeric channel (Table 9); type: cell-based
T24 construct: expressed in transfected cells
T24 sequence (P36544 with tags, fused parts or gaps L131Q): as the sequence (P36544 with tags, fused parts or gaps Q79G) above, with G57Q, L109Q counted along it

[25] = target: T25, α7^L131V-GlyR (Homo sapiens, UniProt P36544, L131V); test: Agonist potency at chimeric channel (Table 9); type: cell-based
T25 construct: expressed in transfected cells
T25 sequence (P36544 with tags, fused parts or gaps L131V): as the sequence (P36544 with tags, fused parts or gaps Q79G) above, with G57Q, L109V counted along it

[26] = tested on: α7GlyR chimeric channels with G175K and A298G mutations; type: cell-based, human; settings: read-out: Agonist potency
[27] = target: T26, α7GlyR R27D E41R Q79G Y115F (Homo sapiens, UniProt P36544, E41R/Q79G/R27D/Y115F); test: Agonist potency at chimeric channel (Table 7); type: cell-based
T26 construct: expressed in transfected cells
T26 sequence (P36544 with tags, fused parts or gaps R27D/E41R/Q79G/Y115F): as the sequence (P36544 with tags, fused parts or gaps Q79G) above, with R5D, E19R, Y93F counted along it

[28] = target: T27, α7GlyR L131G D219A (Homo sapiens, UniProt P36544, D219A/L131G); test: Agonist potency at chimeric channel (Table 9); type: cell-based
T27 construct: expressed in transfected cells
T27 sequence (P36544 with tags, fused parts or gaps L131G/D219A): as the sequence (P36544 with tags, fused parts or gaps Q79G) above, with G57Q, L109G, D197A counted along it

T1 sequence (P36544 with tags, fused parts or gaps T225I/M226I): as the sequence (P36544 with tags, fused parts or gaps Q79A/T225I/M226I) above, with A57Q counted along it

O=c1cccc2n1C[C@@H]1CNC[C@H]2C1 [Cytisine]
EC50 [1]: 8.2 µM
EC50 [2]: 4 µM
EC50 [3]: 4.4 µM
EC50 [4]: 5.6 µM
EC50 [5]: 2.5 µM
EC50 [6]: 0.4 µM
EC50 [7]: 7.1 µM
EC50 [8]: > 10 µM
EC50 [9]: 2.5 µM
EC50 [10]: 6.9 µM
EC50 [11]: 4.02 µM
EC50 [12]: 5.1 µM
EC50 [13]: > 10 µM
EC50 [14]: > 30 µM
EC50 [15]: 4.74 µM
EC50 [16]: 3.24 µM
EC50 [17]: 20.6 µM
EC50 [18]: 13.1 µM
EC50 [19]: 11 µM
EC50 [20]: 12 µM
EC50 [21]: 30 µM
EC50 [22]: 8.1 µM
EC50 [23]: 7 µM
EC50 [24]: > 30 µM
EC50 [25]: 4.3 µM
EC50 ([26]; α7GlyR Q79G A298G G175K Y115F): 4.6 µM
EC50 ([26]; α7GlyR Q79G A298G P2161): 5.5 µM
EC50 ([26]; α7GlyR Q79G A298G Y115F K395 K396A): > 30 µM
EC50 ([26]; α7GlyR Q79G G175K A298G): 0.134 µM
EC50 ([26]; α7GlyR Q79G W77F A298G): 14.1 µM
EC50 [27]: > 30 µM
EC50 [28]: > 30 µM
